Results on two molecules are retold here after US8252833B2, “Benzo (f) isoindol-2-ylphenyl acetic acid derivatives as EP4 receptor agonists” (Glaxo Group Limited, priority 2006, dated 2012).

Each structure is given as a SMILES string.

In series [1] the test system is FCA induced hypersensitivity. Put plainly: FCA induced hypersensitivity in the rat, weight-bearing readout. The series is classed as in vivo. The conditions noted are these: for Effect of low dose when administered alone: low (ED20) doses alone, p.o. (FIG. 1); for ED20 dose: p.o., reversal of FCA induced hypersensitivity. Here is the method: • At the start of the study, naïve weight bearing readings were taken. The hypersensitivity to pain was measured using the Rat incapacitance tester (Linton instruments). • All male rats (RH strain, 180-220 g) then received an intraplantar injection of 100 ul of FCA (Freund's complete adjuvant) into the left hind paw. The ECA was sonicated for 15 minutes prior to use. • 24 hours after administration of the FCA, pre-dose weight bearing readings were taken. All animals were then ranked and randomised for dosing according to their FCA window (predose difference in grams—naïve difference in grams). Rats with FCA window less than 30 were excluded from the study. • Animals were then dosed orally according to ranking and randomisation. Two studies were carried out as follows: • In the first study the ED20 doses of Example 9 and paracetamol were combined using the following protocol, • (1) Vehicle (1% methylcellulose) p.o. • (2) Paracetamol (60 mg/kg) p.o.* • (3) Example 9 (0.1 mg/kg) p.o.* • (4) Example 9 (0.1 mg/kg)+Paracetamol (60 mg/kg) p.o.** • (5) Celecoxib (10 mg/kg) p.o. • *ED20 dose • **Example 9 was dosed initially followed by paracetamol 30 minutes later. • In the second study a fixed dose ratio combination with Example 9 and paracetamol was completed using the following protocol, • (1) Vehicle (1% methylcellulose) p.o.+Vehicle (1% methylcellulose) p.o. • (2) Example 9, 0.003 mg/kg p.o.+Paracetamol, 1.8 mg/kg p.o. • (3) Example 9, 0.01 mg/kg p.o.+Paracetamol, 6 mg/kg p.o. • (4) Example 9, 0.03 mg/kg p.o.+Paracetamol, 18 mg/kg p.o. • (5) Example 9, 0.1 mg/kg p.o.+Paracetamol, 60 mg/kg p.o. • (6) Vehicle (1% methylcellulose) p.o.+Celecoxib, 10 mg/kg p.o. • Animals were assessed in the weight bearing apparatus 1 hour after the dose of paracetamol. • The study was blind and randomised by FCA window using a Latin square method. Preparation Details • All compounds were ground using a pestle and mortar prior to adding the vehicle (1% methylcellulose). Dose volume 5 ml/kg. • All doses were sonicated and stirred before administration. • In this study a positive control was also tested (Celecoxib). […] Statistical Analysis • % reversals were calculated by using the naïve, pre-dose and post dose values as follows: % Reversal=[(Pre-dose−Post-dose)/(Pre-dose−Naïve)]×100. • Graphs and ED50 values were calculated using Prism3. • Statistical analysis was carried out using ANOVA and Fischer LSD test from statistical package Statistica 6. • Synergy was statistically calculated using the synergy macro. The logED50 values and the Standard errors for the individual molecules and the combination study are obtained from Statistica 6 and put into the macro. The fixed dose ratio is specified and the macro then calculates whether the combination was statistically synergistic. It compares the combination data to the theoretical addition of the individual compounds. Results: Percentage Reversal of the Established FCA-Induced Hypersensitivity: […]

Series [2] can be described thus: Oral pharmacokinetics in the rat. The conditions noted are these: in vivo, read-out: oral pharmacokinetic half life (converted).
Series [3] has as its target T1, recombinant human prostanoid EP4 receptor (Homo sapiens, UniProt P35408).
T1 construct: expressed in transfected cells; host or cells: HEK-293(T) cells (HEK-EP4, G418 selected)
Nature of the series: In vitro cAMP assay in HEK-EP4 cells. The series is classed as cell-based.
Protocol: Cells were grown as a monolayer culture in DMEM-F12/F12 containing glutamax II (Gibco) and supplemented with 10% foetal bovine serum (Gibco) and 0.4 mg.ml-1 G418. HEK-EP4 cells were pre-treated 24 hr and 30 mins prior to the experiment with 10 μM indomethacin and harvested using Versene containing 10 μM indomethacin. The cells were resuspended in assay buffer (DMEM:F12, 10 μM indomethacin and 200 μM IBMX) at 1×10^6 cells per ml and incubated for 20 min at 37° C. Thereafter, 50 μl of cells were added to 50 μl agonist (compound of Formula (I)) and incubated at 37° C. for 4 minutes before stopping reactions with 1000 of 1% triton X-100. cAMP levels in the cell lysates were determined using a competition binding assay. In this assay the ability of cell lysates to inhibit 3H-cAMP (Amersham) binding to the binding subunit of protein kinase A was measured and cAMP levels were calculated from a standard curve. The data for each compound were expressed as a % of the response to a 10 nM maximal concentration of the standard agonist PGE2. For each compound the maximal response and concentration of compound causing 50% of its maximal response were calculated. Intrinsic activity is expressed relative to the maximal response to PGE2. Unless stated, reagents were purchased commercially from Sigma.

T1 sequence (P35408 whole entry): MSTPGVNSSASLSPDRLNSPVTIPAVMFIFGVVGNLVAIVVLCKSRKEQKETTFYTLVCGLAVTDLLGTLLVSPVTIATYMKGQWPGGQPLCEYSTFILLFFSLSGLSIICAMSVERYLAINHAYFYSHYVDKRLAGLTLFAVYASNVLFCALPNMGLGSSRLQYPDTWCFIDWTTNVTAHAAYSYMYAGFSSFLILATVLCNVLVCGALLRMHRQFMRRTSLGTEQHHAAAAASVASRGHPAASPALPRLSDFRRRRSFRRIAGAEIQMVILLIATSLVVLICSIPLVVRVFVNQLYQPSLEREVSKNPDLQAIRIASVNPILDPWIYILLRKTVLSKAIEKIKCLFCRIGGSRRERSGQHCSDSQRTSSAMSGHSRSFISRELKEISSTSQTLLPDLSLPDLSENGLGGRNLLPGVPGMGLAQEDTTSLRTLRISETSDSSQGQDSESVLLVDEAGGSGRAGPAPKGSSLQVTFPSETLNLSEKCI

On to `CC(=O)Nc1ccc(O)cc1` [Paracetamol, paracetamol, reference compound], for which, in series [1], the “Effect of low dose when administered alone” value was “ineffective”. Moreover, the ED20 dose in series [1] (rat) is given as 60 mg/kg.
Regarding `CCOc1c2c(c(OCC)c3ccccc13)C(=O)N(c1ccc(CC(=O)O)c(F)c1)C2` [Example 9, {4-[4,9-Bis(ethyloxy)-1-oxo-1,3-dihydro-2H-benzo[f]isoindol-2-yl]-2-fluorophenyl}acetic acid], the half-maximal effective concentration (EC50) at 3 mg/kg in series [1] (Rattus norvegicus) was 600 nM. In series [1] (dosed alone at 3 mg/kg, rat), the “reversal of eFCA-induced hypersensitivity” value came to 80%. Moreover, the “Effect of low dose when administered alone” value in series [1] was “ineffective”. The ED20 dose in series [1] (rat) is given as 0.1 mg/kg. For the same molecule, the half-life in series [2] was 456 min. In series [3], the EC50 is 39.8 nM. The Emax in series [3] (maximal response relative to the maximal response to PGE2 (10 nM), read-out: average intrinsic activity) was found to be 68%.
